PubChem BioAssay (NCI)
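Cells were grown in 96-well plates and exposed to each compound for 48 hours at five concentrations; endpoints were interpolated linearly between bracketing concentrations, or set to the highest concentration if not reached. GI50 is the concentration that inhibits growth by half. TGI is the concentration that stops growth completely.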

Tests used:
Assay in all cases: DTP human tumour cell line panel, 48 h
CCRF-CEM leukemia = system: CCRF-CEM leukemia
COLO 205 colon = system: COLO 205 colon
NCI/ADR-RES ovarian = system: NCI/ADR-RES ovarian
OVCAR-4 ovarian = system: OVCAR-4 ovarian
SF-539 CNS = system: SF-539 CNS
SK-MEL-28 melanoma = system: SK-MEL-28 melanoma
SK-OV-3 ovarian = system: SK-OV-3 ovarian
U251 CNS = system: U251 CNS
UACC-257 melanoma = system: UACC-257 melanoma
UACC-62 melanoma = system: UACC-62 melanoma

SMILES | GI50 (CCRF-CEM leukemia) [µM] | TGI (CCRF-CEM leukemia) [µM] | GI50 (COLO 205 colon) [µM] | TGI (COLO 205 colon) [µM] | GI50 (NCI/ADR-RES ovarian) [µM] | TGI (NCI/ADR-RES ovarian) [µM] | GI50 (OVCAR-4 ovarian) [µM] | TGI (OVCAR-4 ovarian) [µM] | GI50 (SF-539 CNS) [µM] | TGI (SF-539 CNS) [µM] | GI50 (SK-MEL-28 melanoma) [µM] | TGI (SK-MEL-28 melanoma) [µM] | GI50 (SK-OV-3 ovarian) [µM] | TGI (SK-OV-3 ovarian) [µM] | GI50 (U251 CNS) [µM] | TGI (U251 CNS) [µM] | GI50 (UACC-257 melanoma) [µM] | TGI (UACC-257 melanoma) [µM] | GI50 (UACC-62 melanoma) [µM] | TGI (UACC-62 melanoma) [µM]
Cn1c([N+](=O)[O-])cnc1/C=C1\Oc2ccccc2C1=O | 0.168 | 1.38 | 0.543 | 3.02 | 0.392 | 4.45 | 2.05 | 7.45 | 1.78 | 4.74 | 0.43 | 3.36 | 1.62 | 6.34 | 1.19 | 4.05 | 0.682 | 2.84 | 0.522 | 2.22
O=[N+]([O-])c1cc(Cl)c(Cl)c([N+](=O)[O-])c1Cl | 0.236 | > 100 | 1.55 | 2.91 | 1.91 | 3.75 | 1.69 | 3.06 | 2.53 | 6.94 | 1.74 | 3.14 | 3.88 | 13.4 | 1.03 | 2.61 | 1.56 | 3.08 | 1.94 | 4.35
COc1ccc(/C=N\NC(=O)CN2CCN(c3cc4c(cc3F)c(=O)c(C(=O)N/N=C/c3ccc(OC)c(OC)c3)cn4C3CC3)CC2)cc1OC | 3.31 | > 100 | 3.38 | 14.8 | > 100 | > 100 | 3.17 | 11 | 2.38 | 6.46 | 2 | 3.86 | 3.22 | 9.67 | 2.29 | 6.29 | 3.38 | 37.6 | 2.21 | 4.83
COc1cc(C(=O)/C(C)=C/c2c[nH]c3ccccc23)cc(OC)c1OC | 0.00511 | > 100 | 0.00354 | 0.0159 | 0.00322 | > 100 | 0.0249 | > 100 | 0.0028 | 0.0129 | 0.0175 | – | 0.00768 | 76.8 | 0.00436 | 10.6 | – | – | – | 14.1
CCN1CCN(C(=O)[C@]23CC[C@@H](C)[C@H](C)[C@@H]2C2=CC[C@@H]4[C@@]5(C)C/C(=C/c6ccncc6)C(=O)C(C)(C)[C@@H]5CC[C@@]4(C)[C@]2(C)CC3)CC1 | 2.42 | 6.28 | 2.11 | 5.62 | 1.7 | 3.69 | 1.65 | 3.18 | 1.73 | 3.11 | 1.65 | 3.03 | 1.83 | 3.67 | 1.72 | 3.38 | 1.84 | 3.92 | 1.53 | 2.87
O=S(=O)(NC1=NCCN1C(=S)SN1CCn2c1nsc2=S)c1ccc(Br)cc1 | 20.9 | 71.8 | 28.7 | 86.3 | > 100 | > 100 | 49.2 | > 100 | 18.6 | 38.9 | 72.5 | > 100 | 37.8 | > 100 | 38.9 | > 100 | 46.6 | > 100 | 25.2 | 94.3
O=c1c2cc(Cl)ccc2oc2ccc(OCCCCCN3CCCCC3)cc12 | 3.92 | 11.3 | 1 | 2.29 | 5.47 | 24.8 | 5.5 | 11.9 | 4.21 | 10.6 | 1.09 | 2.66 | 6.96 | 13.4 | 6.12 | 12.7 | 1.3 | 3.2 | 1.01 | 2.06
COc1cc(/C=C/C(=O)CC(=O)/C=C/c2cc(OC)c(OC)c(OC)c2)cc(OC)c1OC | 2.58 | > 100 | 6.93 | > 100 | 4.18 | > 100 | 3.27 | 19.7 | 4.85 | 71.8 | 4.24 | 32.8 | 12 | 67.6 | – | – | 3.23 | 31.1 | 3.17 | 13.4
Nc1c(C(=O)c2ccc(Cl)cc2)sc(Nc2ccccc2)c1-c1nc2ccccc2s1 | 13.9 | > 100 | – | – | 3.34 | > 100 | – | – | 2.63 | > 100 | 4.31 | > 100 | 1.99 | 19 | 3.06 | 36.3 | > 100 | > 100 | 2.27 | > 100
O=C(/C=C/c1ccc(F)cc1)c1ccc(Cl)cc1Cl | 22.1 | 52.8 | 44.2 | > 100 | 38.4 | > 100 | 82.9 | > 100 | > 100 | > 100 | – | – | > 100 | > 100 | 44.6 | > 100 | 68.3 | > 100 | 39.8 | > 100
